The test system of assay [1] is F. graminearum PH-1.
The subject of assay [2] is F. graminearum hyphae. The format is cell-based, Fusarium graminearum.
Assay [3] concerns F. graminearum hyphae. The format is cell-based, Fusarium graminearum. The source holds these as a separate data set.
Assay [4] deals with Aspergillus flavus. The format is cell-based.
The mark [5] stands for this setting: F. graminearum PH-1, SFM without calcium.
Setting [6] is: PH-1, all concentrations tested.
Where [7] appears, read: PH-1 conidia, microscopic observation after overnight (16 hours) incubation.

Where two headings read alike, the source gives them in different places. Ends that are not written are not given here. Peptide text beside a SMILES is read from it.

On to `NCC(=O)N1CCC[C@H]1C(=O)N[C@@H](CS)C(=O)N[C@@H](Cc1ccccc1)C(=O)N[C@@H](CO)C(=O)NCC(=O)N[C@@H](CS)C(=O)O` [ALP1] (H-GPCFSGC-OH; N-terminus and C-terminus assumed), for which the “antifungal activity at 48 µM (in words)” value in assay [1] (PH-1) was “no antifungal activity”. Moreover, the “IC100: amount of protein required to inhibit F. graminearum conidial germination completely” value in assay [1] (setting [5]) is on record as above 48 µM. Besides, the “antifungal activity (in words)” value in assay [1] (setting [6]) is “totally inactive”.
The corresponding values for `C[C@H](NC(=O)[C@H](CS)NC(=O)[C@@H]1CCCN1C(=O)CN)C(=O)N[C@@H](CO)C(=O)N[C@@H](CC(=O)O)C(=O)N[C@@H](Cc1c[nH]cn1)C(=O)N[C@@H](CC(N)=O)C(=O)N[C@@H](CS)C(=O)O` [ALP4] (H-GPCASDHNC-OH; N-terminus and C-terminus assumed) are “no antifungal activity”, above 48 µM and “totally inactive”.
In the case of `C[C@@H](O)[C@H](NC(=O)[C@H](CS)NC(=O)[C@H](Cc1c[nH]c2ccccc12)NC(=O)[C@H](CS)NC(=O)[C@H](CCCNC(=N)N)NC(=O)[C@H](Cc1ccccc1)NC(=O)[C@H](CC(=O)O)NC(=O)[C@H](CC(=O)O)NC(=O)[C@H](CCCNC(=N)N)NC(=O)[C@H](CS)NC(=O)[C@H](CCCNC(=N)N)NC(=O)CN)C(=O)N[C@@H](CCCCN)C(=O)N[C@@H](CCCNC(=N)N)C(=O)N[C@@H](CS)C(=O)O` [GMA1-C] (H-GRCRDDFRCWCTKRC-OH; N-terminus and C-terminus assumed), the “SG uptake at 24 µM relative to that induced by GMA4-C” value in assay [2] (24 µM) is given as “twice”. Also, the “IC100: amount of protein required to inhibit F. graminearum conidial germination completely” value in assay [1] (setting [5]) worked out at 24 µM. Besides, in assay [1] (PH-1, microscopy after 16 hours), the “hyperbranching of fungal hyphae” value is listed as “did not cause hyperbranching”. For the same compound, the “concentration giving complete inhibition of conidial germination (IC100)” value (“concentration giving complete inhibition” below) in assay [1] (PH-1 conidia) stood at 24 µM. Also, the “lowest concentration at which antifungal activity / growth inhibition was evident” value in assay [1] (setting [7]) is reported as 6 µM.
A word on the IC50: it is the concentration at which inhibition is half-maximal. Regarding `N=C(N)NCCC[C@H](NC(=O)[C@H](Cc1ccccc1)NC(=O)[C@H](CC(=O)O)NC(=O)[C@H](CC(=O)O)NC(=O)[C@@H](N)CCCNC(=N)N)C(=O)O` [GMA1-L] (H-RDDFR-OH; N-terminus and C-terminus assumed), the “SYTOX Green uptake (in words)” value in assay [2] is on record as “failed to induce any uptake”. Further, in assay [1], the “IC100: amount of protein required to inhibit F. graminearum conidial germination completely” value is recorded as above 96 µM, the “antifungal activity (in words)” value is reported as “no antifungal activity” and the “antifungal activity at 96 µM (in words)” value is “inactive”. This compound came in with an IC50 in assay [1] (PH-1, 36 h) above 96 µM.
Turning to `N=C(N)NCCC[C@H](NC(=O)CN)C(=O)N[C@@H](CS)C(=O)N[C@@H](CCCNC(=N)N)C(=O)N[C@@H](CC(=O)O)C(=O)N[C@@H](CC(=O)O)C(=O)N[C@@H](Cc1ccccc1)C(=O)N[C@@H](CCCNC(=N)N)C(=O)N[C@@H](CS)C(=O)O` [GMA1] (H-GRCRDDFRC-OH; N-terminus and C-terminus assumed), in assay [1] (PH-1), the “antifungal activity at 48 µM (in words)” value is “no antifungal activity” and the “antifungal activity at 96 µM (in words)” value is reported as “failed to show any antifungal activity”. In assay [1] (setting [5]), the “IC100: amount of protein required to inhibit F. graminearum conidial germination completely” value is reported as above 192 µM. Further, the “antifungal activity (in words)” value in assay [1] (setting [6]) was “inactive”.
With `C[C@@H](O)[C@H](NC(=O)[C@H](CS)NC(=O)[C@H](Cc1ccccc1)NC(=O)[C@H](CS)NC(=O)[C@H](CCCNC(=N)N)NC(=O)[C@H](CCCNC(=N)N)NC(=O)[C@H](CCCNC(=N)N)NC(=O)[C@H](Cc1ccccc1)NC(=O)CNC(=O)[C@H](CCCNC(=N)N)NC(=O)[C@H](CS)NC(=O)[C@H](CCCNC(=N)N)NC(=O)CN)C(=O)N[C@H](C(=O)N[C@@H](Cc1c[nH]cn1)C(=O)N[C@@H](CS)C(=O)O)[C@@H](C)O` [GMA4-C] (H-GRCRGFRRRCFCTTHC-OH; N-terminus and C-terminus assumed), in assay [1], the “IC100: amount of protein required to inhibit F. graminearum conidial germination completely” value turned out to be 6 µM, the “concentration giving complete inhibition” value was 6 µM and the “lowest concentration at which antifungal activity / growth inhibition was evident” value turned out to be 1.5 µM. Also, the “fungal growth inhibition at 3 µM” value in assay [1] (PH-1, 16 h, 3 µM) is 70±9%. The same compound came in with an IC50 in assay [1] (PH-1, 36 h) of 3 µM.
Turning to `C[C@H](NC(=O)CNC(=O)[C@@H](N)CCCNC(=N)N)C(=O)N[C@@H](CCCNC(=N)N)C(=O)N[C@@H](CCCNC(=N)N)C(=O)N[C@@H](CCCNC(=N)N)C(=O)O` [GMA4-L1] (H-RGARRR-OH; N-terminus and C-terminus assumed), in assay [2] (24 µM), the “SYTOX Green uptake at 24 µM” value is given as above 100 fluorescence units. In addition, in assay [1], the “IC100: amount of protein required to inhibit F. graminearum conidial germination completely” value was above 96 µM and the “growth inhibition at 24 µM, 16 hours (in words)” value was “mild growth inhibition”. In addition, the “growth inhibition at 96 µM” value in assay [1] (PH-1, 16 h) is on record as 30–40%. The half-maximal inhibitory concentration (IC50) in assay [1] (PH-1, 36 h) is above 96 µM.
On to `C[C@H](NC(=O)[C@H](Cc1ccccc1)NC(=O)CNC(=O)[C@@H](N)CCCNC(=N)N)C(=O)N[C@@H](CCCNC(=N)N)C(=O)N[C@@H](CCCNC(=N)N)C(=O)O` [GMA4-L2] (H-RGFARR-OH; N-terminus and C-terminus assumed), for which, in assay [2], the “SYTOX Green uptake (in words)” value is on record as “failed to induce any uptake”. Further, in assay [1], the “IC100: amount of protein required to inhibit F. graminearum conidial germination completely” value was above 96 µM and the “growth inhibition at 24 µM, 16 hours (in words)” value is listed as “mild growth inhibition”. For the same compound, the “growth inhibition at 96 µM” value in assay [1] (PH-1, 16 h) is given as 30–40%. For the same compound, in assay [1] (PH-1, 36 h), the IC50 is above 96 µM.
Turning to `N=C(N)NCCC[C@H](NC(=O)[C@H](CCCNC(=N)N)NC(=O)[C@H](CCCNC(=N)N)NC(=O)[C@H](Cc1ccccc1)NC(=O)CNC(=O)[C@@H](N)CCCNC(=N)N)C(=O)O` [GMA4-L] (H-RGFRRR-OH), the “fungal growth inhibition at 12 µM” value in assay [1] (PH-1, 16 h, 12 µM) was 100%. The compound further had a 50% inhibitory concentration (IC50) in assay [1] (PH-1, 36 h) of 4 µM. Moreover, in assay [1] (PH-1, 36 h, 6 µM), the “fungal growth inhibition at 6 µM” value is on record as 91±7%.
Regarding `N=C(N)NCCC[C@H](NC(=O)CN)C(=O)N[C@@H](CS)C(=O)N[C@@H](CCCNC(=N)N)C(=O)NCC(=O)N[C@@H](Cc1ccccc1)C(=O)N[C@@H](CCCNC(=N)N)C(=O)N[C@@H](CCCNC(=N)N)C(=O)N[C@@H](CCCNC(=N)N)C(=O)N[C@@H](CS)C(=O)O` [GMA4] (H-GRCRGFRRRC-OH; N-terminus and C-terminus assumed), the “concentration giving complete inhibition” value in assay [1] (PH-1 conidia) was 12 µM. For the same compound, the “lowest concentration at which antifungal activity / growth inhibition was evident” value in assay [1] (setting [7]) is reported as 6 µM.
Turning to “RTCESQSHKFKGPCASDHNCASVCQTERFSGGRCRGFRRRCFCTTHC (also: bicyclic or more (positions not given here)) [MtDef4]”, the “hyphal morphology compared with untreated control hyphae” value in assay [3] is “no difference”. Also, in assay [2], the “SYTOX Green uptake (in words)” value is on record as “increased in a concentration dependant manner” and the “time to start of SG uptake after addition of defensin” value was at most 5 min. In addition, the “maximum SYTOX Green fluorescence at 6 µM, 5 hours” value in assay [2] (6 µM, 5 hours) is reported as 702±10 units. In addition, in assay [1], the “IC100: amount of protein required to inhibit F. graminearum conidial germination completely” value is 1.5 to 2.5 µM and the “concentration giving complete inhibition” value came to 1.5 µM. Moreover, in assay [1] (1.5 µM), the “fungal growth inhibition at 1.5 µM” value is given as 100%. Moreover, the IC50 in assay [1] (read-out: IC50: amount of protein required for inhibiting 50% growth of F. graminearum) lay within 0.75 to 1 µM. Further, the “growth inhibition of A. flavus at 48 µM” value in assay [4] is “approximately 75%”.

(Values after article PMC3076432 (PLoS ONE, 2011).)
